In publication PMC10970924 (Life, 2024):
Like-named read-outs stand apart in the source and are kept apart here.

Experiments:
MCF-7 cells = test: Cell cycle analysis, Hoechst 33342 flow cytometry; format: cell-based, human; details: MCF-7, 72 h
Experimental: MCF-7 cells were seeded at a density of 15,000 cells/mL in a 6-well plate in 3 mL of complete medium. After 24 h, the medium was replaced with one containing the studied compounds and incubated for 72 h. After incubation, cells were stained with Hoechst 33342 (Roche, Basel, Switzerland) at a concentration of 6 μg/mL for 30 min in the CO2 incubator. The nutrient medium over cells containing the floating cells was collected into tubes, and then the remaining adherent cells were trypsinized and added to the tubes with the floating cells. After this, cells were centrifuged and washed with a DPBS buffer. The fluorescence intensity of cells was measured using the flow cytofluorimeter BD FACSCalibur™ (BD Biosciences, Franklin Lakes, NJ, USA). To identify single cells, direct scatter (FS) and side scatter (SS) measurements were used, and cell doublets were excluded from the analysis using pulse processing based on the area-to-pulse width ratio.

[1] = Neutralization of the ABTS radical; details: for EC50: 37 °C, 15 min, 738 nm, read-out: EC50 of half-maximal ABTS radical inhibition; for Trolox Equivalent Antioxidant Capacity (TEAC): ABTS radical neutralization, relative to Trolox
Experimental: Initially, an ABTS solution was prepared in water at a concentration of 7 mM. Subsequently, the radical cation ABTS^•+ was generated by mixing the original ABTS solution with 2.45 mM ammonium persulfate at a 1:1 ratio. This mixture was then allowed to stand in the dark at room temperature for 12–16 h before use. The diluted ABTS^•+ solution was prepared in a methanol/water mixture (1:1) reaching an optical density of 0.7 units at 738 nm (~0.7 mM). Next, various concentrations of compounds (ranging from 1000, 500, 250, 125, 62.5, 31.2, 15.6, to 7.8 μM) in a volume of 130 µL in a methanol/water mixture (1:1) were mixed with the ABTS radical cation solution (~0.7 mM) in a volume of 130 µL. The mixture was then incubated at 37 °C in a water bath for 15 min. The optical density was measured at 738 nm using the Infinite M200 PRO (TECAN, Zürich, Switzerland) plate reader. The percentage inhibition of ABTS absorption relative to the control was calculated. A percent inhibition vs. antioxidant concentration graph was plotted and the concentration of the antioxidant that suppresses the optical density of the ABTS radical by 50% (EC50) was determined. The Trolox Equivalent Antioxidant Capacity (TEAC) was also calculated.

[2] = tested on: chicken erythrocyte genomic DNA; test: Spectrophotometry of complexation with genomic DNA
Experimental: Chicken erythrocyte genomic DNA (Reanal, Budapest, Hungary) solution was prepared by dissolving 6 mg of DNA in 3 mL of Tris-EDTA (TE) buffer and allowed to stay for 2 days at a temperature of +2 °C until clear. The concentration of the initial DNA solution was measured using a nanodrop spectrophotometer (DeNovix, Wilmington, DE, USA). A series of DNA concentrations were prepared in TE buffer (60, 30, 20, 15 μg/mL). […] As a control, an equivalent amount of TE buffer in place of the genomic DNA was added to the samples. […] The results were then computed and statistically analyzed using GraphPad Prism software 8.0.1.

PC-3 cells = details: for Olive Moment / Tail Area / Tail DNA % / Tail Intensity / Tail Length / Tail Moment: 3 days; for DNA breaks in the Comet assay (in words): PC-3, 72 h
Experimental: PC-3 and MCF-7 cells were seeded into 6-well plates at a concentration of 15,000 cells/mL. […] Cells were trypsinized and washed, then placed in 0.7% low melting point agarose and mounted on glass slides (200 000 cells/sample). Slides were treated with lysis solution (2.5 M NaCl, 0.1 M disodium EDTA, 1% Triton X-100, 10 mM Tris base, 10% DMSO, pH 10) for 1 h at 4 °C. Next, the samples were placed in an alkaline solution (12 g of NaOH brought to 1 L with water, disodium EDTA 0.2 M, pH >13) and incubated for 30 min at room temperature. Afterward, the slides were washed with electrophoresis 1X TBE buffer (10X TBE: 9.3 g disodium salt EDTA, 108 g Tris base, and 55 g boric acid per 1 L of water) twice and placed in the electrophoresis chamber. Electrophoresis was carried out under neutral conditions in 1X TBE buffer for 30 min at 31 V (at the rate of 1 V/cm). Afterward, the slides were washed in PBS (Ca free, Mg free) 2 times for 5 min, fixed in 96% ethanol for 5 min, and dried. Before analysis, 50 μL of SYBR Green solution (1μL stock + 10 mL TE buffer) was applied to the slides. Using an Observer Z1 fluorescent optical microscope (Carl Zeiss, Jena, Germany), photographs of cells were taken and analyzed in the ImageJ program (Plugin OpenComet).
“Tail moment” (TM) and “Olive moment” (OTM) were calculated using the following formula:(1) TM=(Fluor in tail/Fluor total )×tail lenght (2) OTM=(Tail mean−Head mean)×(Tail DNA %)/100.

HCT-116 = test: Mitochondrial membrane potential, rhodamine 123 flow cytometry; format: cell-based, human; details: tumor cells (HCT-116 in Figure 4a), 72 h, IC50 or higher
Experimental: Cells were seeded in a 12-well plate at a density of 1 × 10^5 cells/well and incubated for 24 h at 37 °C in a humid atmosphere with 5% CO2 prior to treatment. Cells were bathed in complete DMEM media containing the respective compounds, using a solvent (dH2O/DMSO) as a negative control. After 72 h, the nutrient medium over cells containing the floating cells was collected into tubes, and then the adherent cells were trypsinized and added to the fraction of floating cells. Cell suspensions were then centrifuged, and the pellet was suspended in phosphate-buffered saline (PBS) to a final density of 5 × 10^5 cells/mL. Cell suspension in a volume of 250 μL and 500 nM rhodamine 123 were added to a rounded-well plate, followed by incubation for 30 min at 25° C. Measurements were conducted using flow cytometry on the Millipore Guava EasyCyte HT Flow Cytometer System in a green fluorescent channel.

porcine neuronal tubulin = test: Tubulin polymerization assay (Cytoskeleton kit); format: biochemical; details: effector 10 µM; for Maximum Initial Rate of Polymerization V Max: tubulin 3 mg/mL, 37 °C
Experimental: To assess the effect of the test compounds on tubulin polymerization, a test kit from Cytoskeleton was used. The plate was pre-warmed to 37 °C for 20 min before starting the assay. Then, 10 µL of the compound of interest, at a 10-fold concentration in an assay buffer, was pipetted into the plate. For comparison, paclitaxel, a polymerization enhancer, and vinblastine, a tubulin polymerization inhibitor, were used. Both effectors were used at a concentration of 10 µM. The assay buffer served as a control. The plate was then incubated at 37 °C for 2 min, after which 100 µL of the diluted tubulin solution (containing 3 mg/mL of tubulin in 80 mM PIPES pH 6.9, 2 mM MgCl2, 0.5 mM EGTA, 1 mM GTP, and 7% glycerol) was added. The plate was then immediately placed in the plate reader. Absorbance was measured at 340 nm every minute for 61 readings on a Varioskan LUX (Thermo Scientific, Waltham, MA, USA) plate reader.

## COc1cccc2c1C(=O)c1c(O)c3c(c(O)c1C2=O)C[C@@](O)(C(=O)CO)C[C@@H]3O[C@H]1C[C@H](N)[C@H](O)[C@H](C)O1 [DOX, Doxorubicin, reference compound]
MCF-7 cells
  Effect on the cell cycle (in words): cell-cycle arrest in the G2M phase
[1]
  EC50: 6.7 ± 0.7 µM
  Trolox Equivalent Antioxidant Capacity (TEAC): 2.34
[2]
  Changes in the optical spectrum on interaction with genomic DNA (in words): significant changes
PC-3 cells; PC-3, 0.5 µM (IC25)
  Olive Moment: 8.13
  Tail Area: 2215
  Tail DNA %: 22.7%
  Tail Intensity: 66
  Tail Length: 51
PC-3 cells; PC-3, 1.1 µM (IC50)
  Olive Moment: 11.64
  Tail Area: 1902
  Tail DNA %: 35.2%
  Tail Intensity: 74
  Tail Length: 51
PC-3 cells
  DNA breaks in the Comet assay (in words): induces DNA breaks
HCT-116
  Effect on mitochondrial potential ΔΨ (in words): significant number of cells with reduced mitochondrial potential
Porcine neuronal tubulin
  Impact on tubulin polymerization (in words): no statistically significant impact
  Maximum Initial Rate of Polymerization V Max: 5.5 mOD/Min

## COc1cccc2c1C(=O)c1c(O)c3c(c(O)c1C2=O)CC(O)(C(=O)CO)CC3OC1CC(NC(=O)c2cnc(C)c3c2COC(C)(C)O3)C(O)C(C)O1 (centres unmarked) [DOX-1, N-(3-hydroxy-2-methyl-6-((3,5,12-trihydroxy-3-(2-hydroxyacetyl)-10-methoxy-6,11-dioxo-1,2,3,4,6,11-hexahydrotetracen-1-yl)oxy)tetrahydro-2H-pyran-4-yl)-2,2,8-trimethyl-4H-[1,3]dioxino[4,5-c]pyridine-5-carboxamide]
[1]
  EC50: 4.5 ± 0.5 µM
  Trolox Equivalent Antioxidant Capacity (TEAC): 3.49
[2]
  Changes in the optical spectrum on interaction with genomic DNA (in words): no significant changes
[2]; DNA concentration 15 µg/mL
  Shift of the Absorption Maximum Relative to Control: 2 nm
[2]; DNA concentration 20 µg/mL
  Shift of the Absorption Maximum Relative to Control: 1 nm
[2]; DNA concentration 30 µg/mL
  Shift of the Absorption Maximum Relative to Control: 4 nm
[2]; DNA concentration 60 µg/mL
  Shift of the Absorption Maximum Relative to Control: 2 nm
PC-3 cells; PC-3, 3 µM (IC25)
  Olive Moment: 2.48
  Tail Area: 1094
  Tail DNA %: 6.7%
  Tail Intensity: 34
  Tail Length: 10
  Tail Moment: 1.07
PC-3 cells; PC-3, 6.1 µM (IC50)
  Olive Moment: 2.24
  Tail Area: 1196
  Tail DNA %: 6.7%
  Tail Intensity: 30
  Tail Length: 17
  Tail Moment: 1.36
PC-3 cells; PC-3, 11.3 µM (IC70)
  Olive Moment: 3.79
  Tail Area: 1403
  Tail DNA %: 11.4%
  Tail Intensity: 37
  Tail Length: 12
  Tail Moment: 1.87
PC-3 cells
  DNA breaks in the Comet assay (in words): do not cause DNA breaks
HCT-116
  Effect on mitochondrial potential ΔΨ (in words): significant number of cells with reduced mitochondrial potential
Porcine neuronal tubulin
  Impact on tubulin polymerization (in words): no statistically significant impact
  Maximum Initial Rate of Polymerization V Max: 5.5 mOD/Min
other
  melting point: 165 to 167 °C (dec.)

## COc1cccc2c1C(=O)c1c(O)c3c(c(O)c1C2=O)CC(O)(C(=O)CO)CC3OC1CC(NC(=O)/C=C/c2cnc(C)c3c2COC(C)(C)O3)C(O)C(C)O1 (centres unmarked) [DOX-2, (E)-N-(3-hydroxy-2-methyl-6-((3,5,12-trihydroxy-3-(2-hydroxyacetyl)-10-methoxy-6,11-dioxo-1,2,3,4,6,11-hexahydrotetracen-1-yl)oxy)tetrahydro-2H-pyran-4-yl)-3-(2,2,8-trimethyl-4H-[1,3]dioxino[4,5-c]pyridin-5-yl)acrylamide]
MCF-7 cells
  Effect on the cell cycle (in words): cell-cycle arrest in the G2M phase
[1]
  EC50: 18.9 ± 6.8 µM
  Trolox Equivalent Antioxidant Capacity (TEAC): 0.83
[2]
  Changes in the optical spectrum on interaction with genomic DNA (in words): no significant changes
[2]; DNA concentration 15 µg/mL
  Shift of the Absorption Maximum Relative to Control: 0 nm
[2]; DNA concentration 20 µg/mL
  Shift of the Absorption Maximum Relative to Control: 0 nm
[2]; DNA concentration 30 µg/mL
  Shift of the Absorption Maximum Relative to Control: 0 nm
[2]; DNA concentration 60 µg/mL
  Shift of the Absorption Maximum Relative to Control: 1 nm
Porcine neuronal tubulin
  Impact on tubulin polymerization (in words): no statistically significant impact
  Maximum Initial Rate of Polymerization V Max: 6.8 mOD/Min
other
  melting point: 175 to 176 °C (dec.)
